Measured values as given in ChEMBL document CHEMBL3784987, “Synthesis and preliminary evaluation of 5,7-dimethyl-2-aryl-3H-pyrrolizin-3-ones as angiogenesis inhibitors” (Bioorg Med Chem Lett, 2016).
pIC50: −log10 of the molar value. Calls of active or inactive are those of the source. The rule behind the calls is not given here.

Assays:
HUVEC [1] = assay: Antiangiogenic activity in human HUVEC cells assessed as angiogenesis rate at 10 uM after 5 hrs by endothelial tube formation assay relative to control; assay type: functional
Thoracic aorta [2] = assay: Antiangiogenic activity in Fischer 344 rat thoracic aorta assessed as field of view occupancy at 1 microg/ml after 5 days by light microscopic analysis (reference value: 86 %); assay type: functional
Thoracic aorta [3] = assay: Antiangiogenic activity in Fischer 344 rat thoracic aorta assessed as field of view occupancy at 10 microg/ml after 5 days light microscopic analysis(reference value: 86 %); assay type: functional
[4] = Cytotoxicity against mouse SVEC4-10 cells assessed as cell viability after 24 hrs by MTS assay; assay type: cell-based; conditions: SVEC4-10, 24 h
HUVEC [5] = assay: Antiangiogenic activity in human HUVEC cells assessed as angiogenesis rate at 1 uM after 5 hrs by endothelial tube formation assay relative to control; assay type: functional

Structure (SMILES) | Activity (HUVEC [1]) | further results
COc1ccccc1C1=Cc2c(C)cc(C)n2C1=O | Active | –
Cc1cc(C)c(/C=C2\C(=O)Nc3ccccc32)[nH]1 [SEMAXANIB] | – | Activity (Thoracic aorta [2]): 61%; Activity (Thoracic aorta [3]): 10%
Cc1cc(C)n2c1C=C(c1cccc(Cl)c1)C2=O | inactive | –
CCN(CC)CCNC(=O)c1c(C)[nH]c(/C=C2\C(=O)Nc3ccc(F)cc32)c1C [SUNITINIB] | Active | pIC50 [4]: 5.10
Cc1cc(C)n2c1C=C(c1ccc([N+](=O)[O-])cc1)C2=O | inactive | –
Cc1cccc(C2=Cc3c(C)cc(C)n3C2=O)c1 | inactive | –
Cc1cc(C)n2c1C=C(c1cccc([N+](=O)[O-])c1)C2=O | inactive | –
Cc1cc(C)n2c1C=C(c1ccc(F)cc1)C2=O | inactive | –
Cc1cc(C)n2c1C=C(c1ccccc1F)C2=O | Active | –
Cc1cc(C)n2c1C=C(c1cccc(F)c1)C2=O | inactive | –
Cc1ccccc1C1=Cc2c(C)cc(C)n2C1=O | Active | –
Cc1cc(C)n2c1C=C(c1cccc(Br)c1)C2=O | inactive | –
Cc1cc(C)n2c1C=C(c1ccccc1Cl)C2=O | inactive | –
Cc1cc(C)n2c1C=C(c1ccccc1[N+](=O)[O-])C2=O | 29.7% | Activity (Thoracic aorta [2]): inactive; Activity (HUVEC [5]): 74%; pIC50 [4]: 4.49; Activity (Thoracic aorta [3]): 4%
COc1cccc(C2=Cc3c(C)cc(C)n3C2=O)c1 | inactive | –
Cc1ccc(C2=Cc3c(C)cc(C)n3C2=O)cc1 | inactive | –
Cc1cc(C)n2c1C=C(c1ccccc1)C2=O | 68.4% | Activity (Thoracic aorta [3]): Active
Cc1cc(C)n2c1C=C(c1ccc(Cl)cc1)C2=O | inactive | –
Cc1cc(C)n2c1C=C(c1ccc(Br)cc1)C2=O | inactive | –
Cc1cc(C)n2c1C=C(c1ccccc1Br)C2=O | Active | –
